Data reported in ChEMBL document CHEMBL1140789, “Sulfonate chalcone as new class voltage-dependent K+ channel blocker” (Bioorg Med Chem Lett, 2008).
pIC50: −log10 of the molar value.

What was measured:
Assay type in all cases: cell-based
[1] = Blockade of human K+ channel in HEK293 cells assessed as inhibition of outward delayed rectifying K+ current
[2] = target: Potassium voltage-gated channel subfamily A member 1 (Homo sapiens) (UniProt Q09470); test: Blockade of Kv1.1 channel over-expressed in CHO cells assessed as inhibition of delayed rectifying K+ current at 10 uM
[3] = target: Potassium voltage-gated channel subfamily A member 6 (Homo sapiens) (UniProt P17658); test: Blockade of Kv1.6 channel over-expressed in CHO cells assessed as inhibition of delayed rectifying K+ current at 10 uM
[4] = target: Potassium voltage-gated channel subfamily A member 3 (Homo sapiens) (UniProt P22001); test: Blockade of Kv1.3 channel over-expressed in CHO cells assessed as inhibition of delayed rectifying K+ current at 10 uM
[5] = target: Potassium voltage-gated channel subfamily A member 2 (Homo sapiens) (UniProt P16389); test: Blockade of Kv1.2 channel over-expressed in CHO cells assessed as inhibition of delayed rectifying K+ current at 10 uM
[6] = test system: HEK293; test: Blockade of human K+ channel in HEK293 cells assessed as inhibition of outward delayed rectifying K+ current at 10 uM

Potassium voltage-gated channel subfamily A member 6 (Homo sapiens), sequence (P17658 whole entry): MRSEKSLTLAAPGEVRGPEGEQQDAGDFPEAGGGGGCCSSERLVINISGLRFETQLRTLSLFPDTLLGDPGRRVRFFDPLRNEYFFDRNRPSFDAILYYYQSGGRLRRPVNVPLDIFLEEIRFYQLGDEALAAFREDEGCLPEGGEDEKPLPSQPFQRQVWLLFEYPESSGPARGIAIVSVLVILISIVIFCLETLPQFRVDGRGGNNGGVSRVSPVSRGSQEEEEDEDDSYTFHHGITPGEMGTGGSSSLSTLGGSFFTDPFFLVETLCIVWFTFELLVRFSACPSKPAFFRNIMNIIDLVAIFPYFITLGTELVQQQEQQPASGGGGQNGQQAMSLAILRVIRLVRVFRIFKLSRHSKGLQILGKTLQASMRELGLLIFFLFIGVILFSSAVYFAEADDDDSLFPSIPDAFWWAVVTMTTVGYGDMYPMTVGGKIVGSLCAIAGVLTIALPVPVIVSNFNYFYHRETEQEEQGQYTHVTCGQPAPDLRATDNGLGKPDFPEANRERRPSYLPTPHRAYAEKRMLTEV
Potassium voltage-gated channel subfamily A member 3 (Homo sapiens), sequence (P22001 whole entry): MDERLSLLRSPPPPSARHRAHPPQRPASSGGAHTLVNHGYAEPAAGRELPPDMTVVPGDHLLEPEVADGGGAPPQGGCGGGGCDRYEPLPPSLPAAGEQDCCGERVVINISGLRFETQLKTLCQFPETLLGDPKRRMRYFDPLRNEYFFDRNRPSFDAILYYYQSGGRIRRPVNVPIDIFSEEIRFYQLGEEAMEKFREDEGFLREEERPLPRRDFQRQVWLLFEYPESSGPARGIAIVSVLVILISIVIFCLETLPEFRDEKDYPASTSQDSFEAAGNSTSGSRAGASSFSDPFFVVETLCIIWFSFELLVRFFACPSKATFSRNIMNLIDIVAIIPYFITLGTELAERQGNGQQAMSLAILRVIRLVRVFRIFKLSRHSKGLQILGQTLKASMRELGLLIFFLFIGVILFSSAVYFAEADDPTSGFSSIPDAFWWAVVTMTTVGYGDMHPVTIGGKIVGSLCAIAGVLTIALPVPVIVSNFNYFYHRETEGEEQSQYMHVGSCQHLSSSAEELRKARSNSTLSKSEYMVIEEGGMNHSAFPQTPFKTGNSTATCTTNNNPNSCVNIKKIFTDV
Potassium voltage-gated channel subfamily A member 2 (Homo sapiens), sequence (P16389 whole entry): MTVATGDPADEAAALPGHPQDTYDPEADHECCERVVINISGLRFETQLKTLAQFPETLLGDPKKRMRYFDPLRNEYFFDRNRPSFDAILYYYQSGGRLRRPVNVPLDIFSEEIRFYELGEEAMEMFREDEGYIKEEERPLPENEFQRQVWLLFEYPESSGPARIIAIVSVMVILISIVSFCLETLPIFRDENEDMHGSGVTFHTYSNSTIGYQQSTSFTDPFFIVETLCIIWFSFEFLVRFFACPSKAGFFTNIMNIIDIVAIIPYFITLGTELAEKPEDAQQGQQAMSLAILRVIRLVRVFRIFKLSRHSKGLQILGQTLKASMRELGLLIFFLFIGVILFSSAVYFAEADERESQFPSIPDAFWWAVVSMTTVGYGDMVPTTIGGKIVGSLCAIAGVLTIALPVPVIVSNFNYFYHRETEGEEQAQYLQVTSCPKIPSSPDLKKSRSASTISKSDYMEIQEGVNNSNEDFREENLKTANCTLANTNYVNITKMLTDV
Potassium voltage-gated channel subfamily A member 1 (Homo sapiens), sequence (Q09470 whole entry): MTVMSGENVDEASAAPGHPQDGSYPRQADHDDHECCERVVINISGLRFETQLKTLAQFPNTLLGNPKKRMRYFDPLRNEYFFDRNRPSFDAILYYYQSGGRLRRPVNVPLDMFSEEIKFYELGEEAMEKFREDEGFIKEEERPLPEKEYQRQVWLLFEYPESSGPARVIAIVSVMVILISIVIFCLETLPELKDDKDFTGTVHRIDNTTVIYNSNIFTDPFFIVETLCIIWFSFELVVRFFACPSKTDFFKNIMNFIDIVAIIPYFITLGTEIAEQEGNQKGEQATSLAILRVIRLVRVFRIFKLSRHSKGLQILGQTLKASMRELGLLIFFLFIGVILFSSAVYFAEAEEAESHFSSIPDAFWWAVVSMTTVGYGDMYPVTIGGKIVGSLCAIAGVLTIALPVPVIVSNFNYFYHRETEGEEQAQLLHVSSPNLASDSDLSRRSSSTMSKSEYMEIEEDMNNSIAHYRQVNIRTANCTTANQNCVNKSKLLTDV

Structure (SMILES) | pIC50 [1] | also measured
Nc1ccc(S(=O)(=O)Oc2ccc(C(=O)/C=C/c3ccccc3)cc2)cc1 | 6.07 | 
Cc1ccc(S(=O)(=O)Oc2ccc(/C=C/C(=O)c3ccc(O)cc3)cc2)cc1 | < 4.30 | 
O=C(/C=C/c1ccc(O)cc1)c1ccccc1 [4-HYDROXYCHALCONE] | < 4.30 | 
Nc1ccc(S(=O)(=O)Oc2cccc(C(=O)/C=C/c3ccc(O)cc3)c2)cc1 | 6.29 | inhibition [2]: 87.5%; inhibition [3]: 44.2%; inhibition [4]: 20.6%; inhibition [5]: 87.4%
Nc1ccc(S(=O)(=O)Oc2ccc(C(=O)/C=C/c3ccc(O)cc3)cc2)cc1 | 5.96 | 
Cc1ccc(S(=O)(=O)Oc2ccc(C(=O)/C=C/c3ccc(O)cc3)cc2)cc1 | 5.80 | 
O=C(/C=C/c1ccc(O)cc1)c1ccc(OS(=O)(=O)c2ccc([N+](=O)[O-])cc2)cc1 | 4.97 | 
CC(=O)Nc1ccc(S(=O)(=O)Oc2ccc(C(=O)/C=C/c3ccc(O)cc3)cc2)cc1 | < 5.00 | 
O=C(/C=C/c1ccccc1)c1ccccc1 [CHALCONE] | < 4.30 | inhibition [6]: 24.2%
O=C(/C=C/c1ccc(OS(=O)(=O)c2ccc(F)cc2)cc1)c1ccccc1 | < 4.30 | 
COc1ccc(/C=C/C(=O)c2ccc(OS(=O)(=O)c3ccc(C)cc3)cc2)cc1 | < 5.00 | 
O=C(/C=C/c1ccc(O)cc1)c1ccc(OS(=O)(=O)c2ccc(F)cc2)cc1 | 5.57 | 
O=C(/C=C/c1ccccc1)c1ccc(O)cc1 [4'-HYDROXYCHALCONE] | < 4.30 | 
O=C(/C=C/c1ccc(OS(=O)(=O)c2ccccc2)cc1)c1ccccc1 | < 4.30 | 
O=C(/C=C/c1ccc(O)cc1)c1ccc(OS(=O)(=O)c2ccccc2)cc1 | 5.62 | 
Cc1ccc(S(=O)(=O)Oc2ccc(/C=C/C(=O)c3ccccc3)cc2)cc1 | < 4.30 | 
O=C(/C=C/c1ccc(O)cc1)c1ccc(O)cc1 [4,4'-DIHYDROXYCHALCONE] | < 4.30 | inhibition [6]: 28.2%
